Measured values published in patent US20250242035A1, “GLYCAN CONJUGATE COMPOSITIONS AND METHODS” (GANNA BIO, INC., priority 2022, published 2025).

Experiments:
DC-SIGNR = molecular target: T1, DC-SIGNR (Homo sapiens, UniProt Q9H2X3); assay: In vitro glycan array protein binding, DC-SIGNR; settings: 20 μg/mL protein, glycan printed at 100 μM
T1 construct: purchased R&D Systems 162-D2
T1 sequence (Q9H2X3 1-399): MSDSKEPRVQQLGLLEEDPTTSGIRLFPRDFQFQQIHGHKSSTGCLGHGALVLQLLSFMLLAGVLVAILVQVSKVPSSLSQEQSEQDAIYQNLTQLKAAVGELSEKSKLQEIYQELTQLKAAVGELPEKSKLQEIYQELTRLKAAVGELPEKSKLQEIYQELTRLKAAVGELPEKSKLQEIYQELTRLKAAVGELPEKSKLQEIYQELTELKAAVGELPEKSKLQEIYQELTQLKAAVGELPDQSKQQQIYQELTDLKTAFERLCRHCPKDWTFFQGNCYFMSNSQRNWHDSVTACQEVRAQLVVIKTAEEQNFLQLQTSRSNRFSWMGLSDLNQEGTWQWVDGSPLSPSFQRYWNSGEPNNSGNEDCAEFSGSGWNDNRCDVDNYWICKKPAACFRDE
Procedure: […]. Commercially available proteins tagged with human fragment crystallizable region (Fc) were used for the glycan array screening: DC-SIGNR (R&D Systems, 162-D2), Siglec7 (R&D Systems, 1138-SL), CD2 (R&D Systems, 1856-CD-050), CD83 (R&D Systems, 2044-CD), KLRF1 (R&D Systems, 1099-NK), CD28 (Sino Biological Inc., 11524-H41H).
Protein samples were prepared with 1% bovine serum albumin (BSA) in tris-sucrose-magnesium chloride (TSM) buffer with additional Ca^2+ (20 mM tris-HCl, 150 mM sodium chloride, 5 mM calcium chloride, 2 mM magnesium chloride, and 0.05% Tween 20). Proteins were incubated with the glycan array for 1 hour at room temperature at the concentrations indicated in Tables 9A-9F before being washed three times with wash buffer (20 mM tris-HCl, 150 mM sodium chloride, 5 mM calcium chloride, 2 mM magnesium chloride). The arrays were then contacted with Alexa Fluor 488-labeled goat anti-human IgG (H+L) (Invitrogen A-11013) at 5 μg/ml and measured by fluorescence detection. Values in Tables 9A-9F are reported in relative fluorescence units (RFUs).

FXII = assay: Knockdown measured using plasma FXII ELISA; assay type: in vivo, mice; settings: 10-day post dose
Procedure: Glyco-siRNA conjugates were prepared as described in Examples 6 and 7, wherein the siRNA was an HPRT1-siRNA (SEQ ID NOS: 8 and 9).
Plasma from the 10-day post dose mice was collected using EDTA tube and saved at −80° C. before analysis. The plasma FXII levels were measured using Innov-Research FXII ELISA kit (Cat. No. IMSF12KT) following the provider's instructions.

Primary T cells = assay: In vitro glyco-siRNA internalization by stem loop qPCR, primary T cells; assay type: cell-based
Procedure: (§1) Primary B cells, T cells and NK cells were purchased from […] Technologies Inc. Primary B, T and NK cells were plated 24 hours before the experiment at 100,000 cells per well in […] of Roswell Park Memorial Institute (RPMI) medium with 10% fetal bovine serum (FBS) in 96-well plates. Glyco-siRNAs were incubated with cells for 4 hours. After incubation, media was removed and washed three times in PBS or PBS+150 mM NaCl. […] A final concentration of 1 mM dNTP, 5 U/μl transcriptase, 0.38 U/μl Rnase inhibitor, 50 nM stem loop RT primer (IDT) against siRNA targeting beta catenin (5′-[…]-3′ (SEQ ID NO: 21)) was mixed in a 10 μl volume reaction with 1× buffer. Frozen cell lysates were thawed and heated at 95° C. for 10 minutes and 5 μl of the boiled cell lysate was added to each 10 μl of reverse transcription mix. Samples were incubated first in 16° C. for 30 minutes then 42° C. for 30 minutes followed by 85° C. for 5 minutes and the samples were ready to be used for qPCR reaction. […] 1.5 ul of cDNA template from the reverse transcription reaction is added to the qPCR mix to a final volume for 10 μl. Samples were first incubated at 95° C. for 10 minutes followed by 40 cycles of 30 seconds of 95° C. and 1 minute at 60° C. Relative enrichment of siRNA over endogenous Micro-RNAs were calculated based on the Ct value of standard curve.

Primary B cells = assay: In vitro glyco-siRNA internalization by stem loop qPCR, primary B cells; assay type: cell-based
Procedure: as §1

[1] = test system: Natural Killer (NK) cells; assay: In vitro glyco-siRNA internalization by stem loop qPCR, NK cells; assay type: cell-based
Procedure: as §1

Siglec-7 = molecular target: T2, Siglec-7 (Homo sapiens, UniProt Q9Y286); assay: In vitro glycan array protein binding, Siglec-7; settings: 10 μg/mL protein, glycan printed at 100 μM
T2 construct: purchased R&D Systems 1138-SL
T2 sequence (Q9Y286 19-467): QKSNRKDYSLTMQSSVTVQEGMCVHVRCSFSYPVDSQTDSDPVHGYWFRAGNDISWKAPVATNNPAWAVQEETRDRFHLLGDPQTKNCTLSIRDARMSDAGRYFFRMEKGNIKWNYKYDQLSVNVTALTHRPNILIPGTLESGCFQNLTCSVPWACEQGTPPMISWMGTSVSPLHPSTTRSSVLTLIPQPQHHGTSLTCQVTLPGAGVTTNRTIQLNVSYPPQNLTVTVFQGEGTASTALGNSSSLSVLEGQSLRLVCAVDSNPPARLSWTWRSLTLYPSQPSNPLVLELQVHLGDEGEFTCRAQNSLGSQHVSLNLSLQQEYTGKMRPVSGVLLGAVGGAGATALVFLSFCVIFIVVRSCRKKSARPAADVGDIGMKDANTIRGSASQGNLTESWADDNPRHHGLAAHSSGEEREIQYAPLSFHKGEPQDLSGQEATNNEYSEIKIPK

For CC(=O)N[C@H]1[C@H](O[C@H]2[C@@H](O)[C@@H](CO)O[C@@H](O[C@H]3[C@H](O)[C@@H](O)C(O)O[C@@H]3CO)[C@@H]2O)O[C@H](CO)[C@@H](O[C@@H]2O[C@H](CO)[C@H](O)[C@H](O)[C@H]2O[C@@H]2O[C@@H](C)[C@@H](O)[C@@H](O)[C@@H]2O)[C@@H]1O (stereo partly shown) [K-30, Fuca1-2Galb1-4GlcNAcb1-3Galb1-4Glc], the “Binding to DC-SIGNR (20 μg/ml)(RFU)” value (DC-SIGNR) was 631597 RFU.

For CC(=O)N[C@H]1[C@H](O[C@H]2[C@@H](O)[C@@H](CO)O[C@@H](O[C@H]3[C@H](O)[C@@H](O)C(O)O[C@@H]3CO)[C@@H]2O)O[C@H](CO)[C@@H](O)[C@@H]1O (stereo partly shown) [K-23, GlcNAcb1-3Galb1-4Glc], the “Binding to DC-SIGNR (20 μg/ml)(RFU)” value (DC-SIGNR) was 1047468 RFU.

In the case of CC(=O)N[C@H]1[C@H](O[C@H]2[C@@H](O)[C@@H](CO)O[C@@H](O[C@H]3[C@H](O)[C@@H](O)C(O)O[C@@H]3CO)[C@@H]2O)O[C@H](CO)[C@@H](O[C@@H]2O[C@H](CO)[C@H](O)[C@@H](O[C@@H]3O[C@H](CO)[C@@H](O)[C@H](O)[C@H]3NC(C)=O)[C@H]2O)[C@@H]1O (stereo partly shown) [K-28, GlcNAcb1-3Galb1-4GlcNAcb1-3Galb1-4Glc], the “Binding to DC-SIGNR (20 μg/ml)(RFU)” value (DC-SIGNR) is reported as 723698.8 RFU.

CC(=O)NC1C(OCC2OC(OC3C(CO)OC(O)C(O)C3O)C(O)C(OC3OC(CO)C(O)C(O)C3NC(C)=O)C2O)OC(CO)C(O)C1O (stereo not shown) [K-27, GlcNAcb1-3(GlcNAcb1-6)Galb1-4Glc] was tested, and the “Binding to DC-SIGNR (20 μg/ml)(RFU)” value (DC-SIGNR) was 862190.8 RFU.

In the case of CC(=O)N[C@H]1[C@H](O[C@H]2[C@@H](O)[C@@H](CO)O[C@@H](O[C@H]3[C@H](O)[C@@H](O)C(O)O[C@@H]3CO)[C@@H]2O)O[C@H](CO)[C@@H](O[C@@H]2O[C@H](CO)[C@H](O)[C@H](O)[C@H]2O)[C@@H]1O[C@@H]1O[C@@H](C)[C@@H](O)[C@@H](O)[C@@H]1O (stereo partly shown) [K-29, Galb1-4(Fucα1-3)GlcNAcb1-3Galb1-4Glc], the “Binding to DC-SIGNR (20 μg/ml)(RFU)” value (DC-SIGNR) is reported as 718967.2 RFU.

With CC(=O)N[C@H]1[C@H](O[C@H]2[C@@H](O)[C@@H](CO)O[C@@H](O[C@H]3[C@H](O)[C@@H](O)C(O)O[C@@H]3CO)[C@@H]2O)O[C@H](CO)[C@@H](O[C@@H]2O[C@H](CO)[C@H](O)[C@H](O[C@H]3O[C@H](CO)[C@H](O)[C@H](O)[C@H]3O)[C@H]2O)[C@@H]1O[C@@H]1O[C@@H](C)[C@@H](O)[C@@H](O)[C@@H]1O (stereo partly shown) [K-31, Gala1-3Galb1-4(Fuca1-3)GlcNAcb1-3Galb1-4Glc] the “Binding to DC-SIGNR (20 μg/ml)(RFU)” value (DC-SIGNR) was 543554.7 RFU.

In the case of [N-]=[N+]=NCCO[C@@H]1O[C@H](CO)[C@@H](O)[C@H](O)[C@H]1O [X-2, 2-Azidoethyl β-D-glucopyranoside, reference compound], the “Knockdown Relative to PBS Control Measured Using FXII ELISA, % of PBS Control” value (FXII; 0.1 mg/kg) is reported as 83.00 % of PBS Control, the “Knockdown Relative to PBS Control Measured Using FXII ELISA, % of PBS Control” value (FXII; 1 mg/kg) is reported as 77.24 % of PBS Control and the “Primary T Cell Uptake (Fold Increase vs Naked siRNA)” value (Primary T cells; Donor 1, 4 hours incubation) is reported as 2.83 Fold. For the same molecule, the “Primary T Cell Uptake (Fold Increase vs Naked siRNA)” value (Primary T cells; Donor 2, 4 hours incubation) was 1.68 Fold, the “Primary B Cell Uptake (Fold Increase vs Naked siRNA)” value (Primary B cells; Donor 1, 4 hours incubation) was 2.72 Fold and the “Primary B Cell Uptake (Fold Increase vs Naked siRNA)” value (Primary B cells; Donor 2, 4 hours incubation) was 2.17 Fold. The “NK Cell Uptake (Fold Increase vs Naked siRNA)” value ([1]; Donor 1 repeat 1, NK cells incubated with glyco-siRNA for 4 hours) was 2.16 fold and the “NK Cell Uptake (Fold Increase vs Naked siRNA)” value ([1]; Donor 2 repeat 2, NK cells incubated with glyco-siRNA for 4 hours) was 2.60 fold.

CC(=O)NC1C(OC2C(O)C(CO)OC(OC3C(CO)OC(O)C(O)C3O)C2O)OC(CO)C(OC2OC(CO)C(O)C(OC3OC(CO)C(OC4OC(CO)C(O)C(O)C4OC4OC(C)C(O)C(O)C4O)C(O)C3NC(C)=O)C2O)C1O (stereo not shown) [K-22, Fucα1-2Galb1-4GlcNAcb1-3Galb1-4GlcNAcb1-3Galb1-4Glc] was tested, and the “Binding to DC-SIGNR (20 μg/ml)(RFU)” value (DC-SIGNR) was 1047827 RFU.

For CC(=O)N[C@H]1[C@H]([C@H](O)[C@H](O)CO)O[C@@](O[C@H](CO)[C@@H](O)[C@@H]2O[C@@](O[C@H]3[C@@H](O)[C@@H](CO)O[C@@H](O[C@H]4[C@H](O)[C@@H](O)C(O)O[C@@H]4CO)[C@@H]3O)(C(=O)O)C[C@H](O)[C@H]2NC(C)=O)(C(=O)O)C[C@@H]1O (stereo partly shown) [K-51, Neu5Ac(a2-8)Neu5Ac(a2-3)Gal(b1-4)Glc], the “Binding to Siglec-7 (10 μg/ml)(RFU)” value (Siglec-7) was 28368.5 RFU.
